Here are results for six molecules from US20240189449A1, “LIPID NANOPARTICLES AND POLYNUCLEOTIDES ENCODING ORNITHINE TRANSCARBAMYLASE FOR THE TREATMENT OF ORNITHINE TRANSCARBAMYLASE DEFICIENCY” (ModernaTX, Inc., priority 2021, published 2024).

In series [1] the test system is CD-1 mice. Put plainly: hEPO expression in serum after IV lipid nanoparticles with hEPO mRNA, CD-1 mice. It is filed as in vivo. Conditions: LNP with DSPC, cholesterol, Compound I; for Mean 6 hr hEPO Concentration: serum 6 hours after injection. Here is the method:
To assess potency of expression and metabolic stability of lipids of the disclosure, hepatocyte protein expression (hEPO) was measured following administration to mice of a nanoparticle of the disclosure.
Lipid nanoparticles including DSPC as a phospholipid, cholesterol as a structural lipid, Compound I as a PEG lipid, an ionizable amino lipid of Formula (II), and an mRNA encoding hEPO were intravenously administered to CD-1 mice. The concentration of hEPO in serum was tested at 6 hours after injection.

The test system of series [2] is CD-1 mice. Put plainly: Parent lipid remaining in liver at 24 h, CD-1 mice (hEPO mRNA LNPs). It is filed as in vivo. Conditions: for Approx. Percent Total Dose of Parent Lipid Remaining at 24 h: calculation assumes a 25 g mouse with a 1.5 g liver.
Series [3] concerns CD-1 mice. The series can be described thus: NPI-Luciferase expression, ex vivo liver bioluminescence, CD-1 mice. It is filed as in vivo. The note with it: mouse, IV. Here is the method:
(§1) To further assess potency of expression and metabolic stability of lipids of the disclosure, expression of luciferase was measured following administration to rodents of a nanoparticle of the disclosure comprising an mRNA containing luciferase.
(§2) Lipid nanoparticles including DSPC as a phospholipid, cholesterol as a structural lipid, Compound I as a PEG lipid, an ionizable amino lipid of Formula (II), and an mRNA encoding luciferase were intravenously administered to CD-1 mice and Sprague Dawley rats. The level of expression was tested via bioluminescence in the liver ex vivo at 6 hours after injection.

Series [4] concerns Sprague Dawley rats. Put plainly: NPI-Luciferase expression, ex vivo liver bioluminescence, Sprague Dawley rats. It is filed as in vivo. Conditions: rat, IV. The protocol:
as §1, §2

Series [5] relates to Sprague Dawley rats. Put plainly: Parent lipid remaining in liver tissue at 24 h, rats. It counts as in vivo. The note with it: rat.
In series [6] the test system is Sprague Dawley rats. The series can be described thus: Tolerability in rats: reporter antibody construct expression (ELISA) and liver toxicity. It is filed as in vivo. Conditions: IV. The protocol:
To assess tolerability of the lipids of the disclosure, expression of a reporter antibody construct induced by sample formulations was assessed in rats.
Lipid nanoparticles including DSPC as a phospholipid, cholesterol as a structural lipid, Compound I as a PEG lipid, an ionizable amino lipid of Formula (II), and an mRNA encoding a reporter antibody construct were intravenously administered to Sprague Dawley rats. […] For the formulations tested, high levels of the reporter antibody were measured with minimal signs of liver toxicity (Table 15).

The subject of series [7] is cynomolgus monkeys. Put plainly: Luciferase level in livers ex vivo (ELISA), cynomolgus monkeys. Conditions: IV. The protocol:
To the assess potency of expression and metabolic stability of lipids of the disclosure in different species, the expression of an mRNA was measured following administration to non-human primates of a nanoparticle of the disclosure containing the mRNA.
Lipid nanoparticles including DSPC as a phospholipid, cholesterol as a structural lipid, Compound I as a PEG lipid, an ionizable amino lipid of Formula (II), and an mRNA encoding luciferase were intravenously administered to cynomolgus monkeys. The level of luciferase in livers ex vivo was measured via ELISA at 6 hours after injection.

Series [8] has as its system Sprague Dawley rats. The series can be described thus: hEPO expression in serum after IV lipid nanoparticles with hEPO mRNA, Sprague Dawley rats. It counts as in vivo. Conditions: serum 6 hours after injection. The protocol: To further assess potency of expression and metabolic stability of lipids of the disclosure, hepatocyte protein expression (hEPO) was measured following administration to rats of a nanoparticle of the disclosure.
Lipid nanoparticles including DSPC as a phospholipid, cholesterol as a structural lipid, Compound I as a PEG lipid, an ionizable amino lipid of Formula (II), and an mRNA encoding hEPO were intravenously administered to Sprague Dawley rats. The concentration of hEPO in serum was tested at 6 hours after injection.

On to `CCCCCCCCC(CCCCCCCC)OC(=O)CCCCCCCN(CCO)CCCCCCCC(=O)OCCC(CCCC)CCCC` [Compound 22, 3-Butylheptyl 8-((8-(heptadecan-9-yloxy)-8-oxooctyl)(2-hydroxyethyl)amino)octanoate], for which, in series [1], the “hEPO AUC” value is 2.03E+07 and the “Mean 6 hr hEPO Concentration” value worked out at 1264530 mIU/mL. For the same molecule, in series [2], the “Parent Lipid Remaining (nmol/g liver tissue) at 24 h” value was under 0.1 nmol/g liver tissue and the “Approx. Percent Total Dose of Parent Lipid Remaining at 24 h” value is under 0.1%. Also, the “Mean 6 h ex vivo Liver NPI-Luciferase Total Flux” value in series [3] was 300960000 photons/second. Besides, the “Mean 6 h ex vivo Liver NPI-Luciferase Total Flux” value in series [4] turned out to be 2227666667 photons/second. Also, in series [5], the “Approx. Percent Total Dose of Parent Lipid Remaining at 24 h” value is given as under 0.1%^. For the same molecule, the “Mean Reporter Antibody Construct Concentration” value in series [6] turned out to be 1113642 ng/mL. The “Mean 6 h NPI-Luciferase Concentration” value in series [7] is reported as 1322 ng/g.

In the case of `CCCCCC(CCCCC)CCOC(=O)CCCCCCCN(CCO)CCCCCCCC(=O)OCCC(CCCCC)CCCCC` [Compound 25], the “hEPO AUC” value in series [1] was found to be 1.07E+07. In addition, in series [1], the “Mean 6 hr hEPO Concentration” value amounted to 591942 mIU/mL. Also, the “Parent Lipid Remaining (nmol/g liver tissue) at 24 h” value in series [2] is recorded as 0.1 ± 0.04 nmol/g liver tissue. Further, the results for the “Approx. Percent Total Dose of Parent Lipid Remaining at 24 h” value in series [2] and in series [5] were under 0.1% and under 0.1%^, respectively. Moreover, the “Mean 6 h ex vivo Liver NPI-Luciferase Total Flux” value in series [3] is listed as 336800000 photons/second; in series [4] it was 4068000000 photons/second. Besides, the “Mean Reporter Antibody Construct Concentration” value in series [6] was determined as 948617 ng/mL.

Take `CCCCCC(CCCCC)CCOC(=O)CCCCCCCN(CCCCCCCC(=O)OCCC(CCCC)CCCC)CCCNc1c(NC)c(=O)c1=O` [Compound 54, 3-Butylheptyl 8-((3-((2-(methylamino)-3,4-dioxocyclobut-1-en-1-yl)amino)propyl)(8-oxo-8-((3-pentyloctyl)oxy)octyl)amino)octanoate]: in series [1], the “hEPO AUC” value amounted to 1.97E+07 and the “Mean 6 hr hEPO Concentration” value is listed as 647775 mIU/mL. In addition, in series [2], the “Parent Lipid Remaining (nmol/g liver tissue) at 24 h” value turned out to be 12 ± 1 nmol/g liver tissue and the “Approx. Percent Total Dose of Parent Lipid Remaining at 24 h” value is 12%. Also, the “Mean 6 hr hEPO Concentration” value in series [8] is reported as 476742 mIU/mL. In series [7], the “Mean 6 h NPI-Luciferase Concentration” value was 693 ng/g.

Turning to `CCCCCCCCC(CCCCCCCC)OC(=O)CCCCCCCN(CCCCCCCC(=O)OCCC(CCCC)CCCC)CCCNc1c(NC)c(=O)c1=O` [Compound 27, 3-Butylheptyl 8-((8-(heptadecan-9-yloxy)-8-oxooctyl)(3-((2-(methylamino)-3,4-dioxocyclobut-1-en-1-yl)amino)propyl)amino)octanoate], in series [1], the “hEPO AUC” value was 2.10E+07. Also, the “Mean 6 hr hEPO Concentration” value is recorded as 1316011 mIU/mL in series [1] and 664431 mIU/mL in series [8]. The “Parent Lipid Remaining (nmol/g liver tissue) at 24 h” value in series [2] is recorded as 27 ± 4 nmol/g liver tissue. Also, the “Approx. Percent Total Dose of Parent Lipid Remaining at 24 h” value in series [2] and in series [5] was 28% throughout. Further, the “Mean 6 h ex vivo Liver NPI-Luciferase Total Flux” value turned out to be 357720000 photons/second in series [3] and 1215666667 photons/second in series [4]. Besides, in series [6], the “Mean Reporter Antibody Construct Concentration” value came to 833698 ng/mL. The “Mean 6 h NPI-Luciferase Concentration” value in series [7] amounted to 878 ng/g.

As to `CCCCC(CCCC)CCOC(=O)CCCCCCCN(CCCCCCCC(=O)OCCC(CCCC)CCCC)CCCNc1c(NC)c(=O)c1=O` [Compound 55], in series [1], the “hEPO AUC” value is given as 1.99E+07 and the “Mean 6 hr hEPO Concentration” value was found to be 1332073 mIU/mL. Moreover, in series [2], the “Parent Lipid Remaining (nmol/g liver tissue) at 24 h” value is 3 ± 0.6 nmol/g liver tissue and the “Approx. Percent Total Dose of Parent Lipid Remaining at 24 h” value was 3%. The “Mean 6 hr hEPO Concentration” value in series [8] came to 161760 mIU/mL.

For `CCCCCC(CCCCC)CCOC(=O)CCCCCCCN(CCCCCCCC(=O)OCCC(CCCCC)CCCCC)CCCNc1c(NC)c(=O)c1=O` [Compound 30, Bis(3-pentyloctyl) 8,8′-((3-((2-(methylamino)-3,4-dioxocyclobut-1-en-1-yl)amino)propyl)azanediyl)dioctanoate], the “hEPO AUC” value in series [1] is 2.40E+07. Also, the “Mean 6 hr hEPO Concentration” value in series [1] is given as 1592050 mIU/mL; in series [8], 688780 mIU/mL. Besides, the “Parent Lipid Remaining (nmol/g liver tissue) at 24 h” value in series [2] is listed as 25 ± 4 nmol/g liver tissue. Besides, the “Approx. Percent Total Dose of Parent Lipid Remaining at 24 h” value in series [2] was 26%; in series [5], 25%. For the same molecule, the figures for the “Mean 6 h ex vivo Liver NPI-Luciferase Total Flux” value in series [3] and in series [4] were 299800000 photons/second and 963633333.3 photons/second, respectively. In addition, the “Mean 6 h NPI-Luciferase Concentration” value in series [7] is reported as 782 ng/g.
